How the values were obtained:
[1] = Fluid (supercritical or subcritical phases), isochoric method
[2] = molar heat capacity at constant volume; conditions: Fluid (supercritical or subcritical phases), Vacuum adiabatic calorimetry
[3] = xn = mol fraction of the nth substance listed; conditions: Fluid (supercritical or subcritical phases), isochoric method, x1 = 0.489
[4] = molar heat capacity at constant volume; xn = mol fraction of the nth substance listed; conditions: Fluid (supercritical or subcritical phases), Vacuum adiabatic calorimetry, x1 = 0.489

F/C=C/C(F)(F)F [trans-1,3,3,3-tetrafluoropropene]
Conditions	mass density, [1] [kg/m3]	molar heat capacity at constant volume, [2] [J/K/mol]
270.15 K, 5540 kPa	1266.6	107.31
275.15 K, 7679 kPa	1266.2	107.2
280.15 K, 9813 kPa	1265.7	108
285.15 K, 11937 kPa	1265.3	107.88
290.15 K, 14055 kPa	1264.9	107.43
295.15 K, 2684 kPa	1185	110.39
295.15 K, 16163 kPa	1264.4	107.2
300.15 K, 4324 kPa	1184.7	111.19
305.15 K, 5963 kPa	1184.3	111.42
310.15 K, 7598 kPa	1184	112.22
315.15 K, 9231 kPa	1183.6	111.99
320.15 K, 10858 kPa	1183.3	112.9
325.15 K, 12483 kPa	1182.9	112.45
330.15 K, 14103 kPa	1182.5	113.13
335.15 K, 3368 kPa	1048.2	122.82
335.15 K, 15720 kPa	1182.2	111.99
340.15 K, 4423 kPa	1047.9	121.57
345.15 K, 5477 kPa	1047.7	121.91
350.15 K, 6529 kPa	1047.4	121
355.15 K, 7582 kPa	1047.1	119.97
360.15 K, 8633 kPa	1046.9	118.83
365.15 K, 9684 kPa	1046.6	118.49
370.15 K, 10734 kPa	1046.3	118.95
375.15 K, 11784 kPa	1046.1	119.06
380.15 K, 12833 kPa	1045.8	120.88
385.15 K, 4344 kPa	717.5	195.81
385.15 K, 13882 kPa	1045.6	121
390.15 K, 4695 kPa	717.4	192.84
390.15 K, 14930 kPa	1045.3	120.43
395.15 K, 5051 kPa	717.3	190.11
395.15 K, 15976 kPa	1045	122.14
400.15 K, 5410 kPa	717.1	185.43
405.15 K, 5772 kPa	717	181.21
410.15 K, 6137 kPa	716.9	176.31
415.15 K, 6503 kPa	716.8	174.37
420.15 K, 6872 kPa	716.7	171.18
425.15 K, 7243 kPa	716.6	167.53

F/C=C/C(F)(F)F [trans-1,3,3,3-tetrafluoropropene] + O=C=O
Conditions	mass density, [3] [kg/m3]	molar heat capacity at constant volume, [4] [J/K/mol]
270.15 K, 10302 kPa	1191.8	74.42
275.15 K, 14848 kPa	1191	74.81
280.15 K, 19370 kPa	1190.1	75.36
285.15 K, 23857 kPa	1189.2	75.44
286.15 K, 24752 kPa	1189	77.71
290.15 K, 7501 kPa	1115.7	76.77
290.15 K, 28318 kPa	1188.3	75.75
295.15 K, 11107 kPa	1115	77.86
300.15 K, 14713 kPa	1114.2	78.41
301.15 K, 15434 kPa	1114.1	78.57
302.15 K, 16154 kPa	1114	78.33
303.15 K, 16872 kPa	1113.8	77.63
306.15 K, 19026 kPa	1113.3	76.61
310.15 K, 21888 kPa	1112.7	79.59
315.15 K, 25455 kPa	1112	79.12
320.15 K, 9139 kPa	1003.8	75.59
320.15 K, 28987 kPa	1111.2	78.18
325.15 K, 11633 kPa	1003.2	76.38
330.15 K, 14125 kPa	1002.7	75.99
335.15 K, 16616 kPa	1002.1	74.81
340.15 K, 19103 kPa	1001.6	74.81
345.15 K, 21584 kPa	1001	76.85
350.15 K, 24061 kPa	1000.4	76.46
355.15 K, 26532 kPa	999.9	76.53
360.15 K, 28998 kPa	999.3	78.8
361.15 K, 7303 kPa	648.9	98.76
365.15 K, 7938 kPa	648.7	97.58
370.15 K, 8742 kPa	648.5	100.71
375.15 K, 9557 kPa	648.3	103.3
380.15 K, 10380 kPa	648.1	104.86
385.15 K, 11211 kPa	647.9	104.47
390.15 K, 12047 kPa	647.6	106.11
395.15 K, 12887 kPa	647.4	107.91
400.15 K, 13731 kPa	647.2	103.92
405.15 K, 14576 kPa	647	102.28
410.15 K, 15424 kPa	646.8	97.11
415.15 K, 16273 kPa	646.6	93.67
420.15 K, 17122 kPa	646.3	92.5
425.15 K, 17972 kPa	646.1	91.79
